# From US7655804B2, “Diketohydrazine derivative compounds and drugs containing the compounds as the active ingredient” (Ono Pharmaceutical Co., Ltd., priority 2002, dated 2010)
# Molecular target: T1, cathepsin K (Homo sapiens, UniProt P43235)
# T1 sequence (P43235 115-329): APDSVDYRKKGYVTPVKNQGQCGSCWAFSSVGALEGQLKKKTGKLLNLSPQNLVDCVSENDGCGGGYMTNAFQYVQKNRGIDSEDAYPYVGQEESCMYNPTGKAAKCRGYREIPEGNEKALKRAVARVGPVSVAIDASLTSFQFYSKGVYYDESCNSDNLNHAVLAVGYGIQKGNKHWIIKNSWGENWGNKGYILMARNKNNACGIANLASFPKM
# Experiment: Measurement of cathepsin K inhibitory activity
# Type: biochemical
# Conditions: Dixon plot, 37° C., pH 5.5
# Protocol: 65 μL of cathepsin K enzyme reaction buffer (50 mmol/L of 2-(N-morpholino)ethanesulfonate, 2 mmol/L of ethylenediaminetetraacetate (EDTA) and 4 mmol/L of dithiothreitol (DTT) were mixed to adjust to pH 5.5), 5 μL of cysteine protease inhibitor solution of several concentrations, 20 μL of synthesized substrate (t-butyloxycarbonyl-L-alanyl-glycyl-L-prolyl-L-arginine-4-methyl-chromanyl-7-amide) solution of several concentrations and 10 μL of cathepsin K enzyme solution were mixed and the increase of fluorescence intensity when reacted at 37° C. was measured (λex (excitation wavelength)=355 nm, λem (fluorescence wavelength)=460 nm). As to the substrate and the compound of the present invention, enzyme reactions were carried out in combination of several appropriate concentrations and Dixon plotting was prepared, to define the absolute value of X-coordinate of the intersection point of the graph as Ki value.
row,Ki,Compound
1,14 nM,CC(C)(C)CC(NC(=O)C1CCCCCC1)C(=O)C(=O)NN1CCCS1(=O)=O (stereo not drawn) [2(6)]
2,2.5 nM,CC(C)C[C@H](NC(=O)C1CCCCC1)C(=O)C(=O)NN=C1SCCN1C [8(1)]
3,4 nM,CC(C)(C)CC(NC(=O)C1CCCCC1)C(=O)C(=O)NN1C(=O)CCC1=O (stereo not drawn) [example 5]
